How the values were obtained:
HIV TAR RNA [1] = test: Fluorescence anisotropy binding of Tat peptides to fluorescein-labeled TAR RNA
Experimental: The binding affinity of XaaTat peptides (Xaa=Agh, Arg and Agb) for TAR RNA was measured by fluorescence anisotropy using a Varian Cary Eclipse fluorescence spectrophotometer. The anisotropy (r) was calculated using the following equation: […]
where Ivv, Ivh, Ihh, Ihv are the fluorescence intensities with the excitation polarizer and emission polarizer is oriented perpendicular (Ivh and Ihv) and parallel (Ivv and Ihh) to the direction of the polarized excitation. The fluorescein-labeled TAR RNA (F-TAR-RNA) was excited at 490 nm and the polarized emissions were monitored at 512 nm. The slits were set at 10 nm for both excitation and emission. The integration time was 20 seconds. All data were measured in a Sub-Micro (Starna Cell, Inc.) with a starting volume of 160 μL. Each addition (1 μL) of XaaTat was equilibrated for two minutes before the fluorescence signal was recorded. All experiments were performed at room temperature in TKT buffer (TKT: 50 mM Tris-HCl, pH 7.4, 20 mM KCl and 0.02% Tween20). The initial concentration of F-TAR-RNA was 25 nM. The TKT solution and peptide stock solution were both equilibrated at room temperature more than 20 minutes before the experiment. The experiment was repeated three times independently. For every single point, three measurements were performed and the average value was used for deriving the apparent (apparent KD). The apparent for the peptide-RNA complex was derived by fitting the data assuming a 1:1 peptide-RNA stoichiometry. The fitting was performed using Kaleidagraph 3.52. (Synergy Software, CA).

HIV TAR RNA [2] = test: Gel shift assay (EMSA) with fluorescein-labeled TAR RNA in the presence of poly(dI-dC); assay type: binding
Experimental: The fluorescein-labeled TAR RNA (F-TAR-RNA) was purchased from Sigma. F-TAR-RNA was dissolved in diethyl pyrocarbonate treated H2O to give a 50 μM solution. Binding assays were performed at room temperature. Peptide and RNA were incubated in pH 7.4 buffer (10 μL) containing Tris-HCl (50 mM), KCl (50 mM), poly-dIdC (10 μg/mL), 2% glycerol, and Triton X-100 (0.05%). The F-TAR-RNA concentration was 100 nM. The samples were analyzed by loading into 12% native polyacrylamide gels in […] and electrophoresis was performed with 140 V at room temperature. Dried gels were scanned by the Typhoon TRIO+ Variable Mode Imager. Bands corresponding to the free and bound RNA were quantified using ImageQuant software. The apparent dissociation constants were globally derived from the quantified data assuming a 1:1 binding stoichiometry.

Jurkat cells = test: MTT assay for determining cell survival; assay type: cell-based; conditions: 7 μM and 30 μM peptide, 4 hours, 37° C., FIG. 4
Experimental: The cells were grown to appropriate cell density (roughly 2×10^6 cells/mL) and transferred into new media one day before performing the experiment. For each assay, 8×10^5 cells as determined by a hemocytometer were added into an eppendorf. The cells were centrifuged at 2200 rpm for 5 minutes. The supernatant was removed by suction. Then 200 μL of 7 μM or 30 μM XaaTat peptide was added. The cells were incubated for 4 hours at 37° C. and then centrifuged at 2200 rpm for 5 minutes. The cells were washed with RPMI medium twice, and then 200 μL of 0.5 mg/mL MTT in serum free RPMI buffer was added and incubated at 37° C. for 3.5 hours. The cells were then centrifuged at 4000 rpm for 5 minutes. The supernatant was then transferred to two wells (100 μL each) of a 96-well plate. Then 400 μL DMSO was added to the cells in the assaying eppendorf. The eppendorf was then vortexed for 5 minutes to solubilize the MTT purple crystals, and centrifuged at 2200 rpm for 5 minutes. Then the supernatant was transferred to 4 wells (100 μL each) of the 96-well plate for analysis. The absorbance at 570 was determined for each well using a microplate reader with the absorbance at 655 nm used for background correction. A standard curve was generated using different number of cells (8×10^5, 4×10^5 and 2×10^5). The absorbance for each sample for each peptide at each concentration was then correlated to the number of live cells based on the standard curve.

Structure (SMILES) | Kd (HIV TAR RNA [1]; Table 2, read-out: KD, binding affinity of Tat-peptide and TAR RNA by fluorescence anisotropy assay) | Kd (HIV TAR RNA [1]; fluorescence anisotropy, 25 nM fluorescein-labeled HIV TAR RNA, absence of poly(dI-dC), 1:1 stoichiometry, read-out: Apparent KD HIV TAR RNA) | Kd (HIV TAR RNA [2]; EMSA, 100 nM fluorescein-labeled HIV TAR RNA, 10 μg/mL poly(dI-dC), 1:1 stoichiometry, read-out: Apparent KD HIV TAR RNA with poly(dI-dC)) | Effect of poly(dI-dC) on binding affinity for TAR RNA (specificity) (HIV TAR RNA [2]; comparison of absence and presence of poly(dI-dC), Table 1) | Kd (HIV TAR RNA [2]; in the presence of 10 μg/mL poly(dI-dC), FIG. 9, read-out: KD of peptide and TAR-RNA by gel shift assay) | Kd (HIV TAR RNA [2]; in the presence of poly(dI-dC) at 25° C., Table 3, read-out: KD, dissociation constant of Tat-peptide and TAR RNA by gel shift assay) | Cytotoxicity (cell survival) (Jurkat cells)
CC(=O)N[C@@H](Cc1ccc(O)cc1)C(=O)NCC(=O)N[C@@H](CCCNC(=N)N)C(=O)N[C@@H](CCCCN)C(=O)N[C@@H](CCCCN)C(=O)N[C@@H](CCCNC(=N)N)C(=O)N[C@@H](CCCNC(=N)N)C(=O)N[C@@H](CCC(N)=O)C(=O)N[C@@H](CCCNC(=N)N)C(=O)N[C@@H](CCCNC(=N)N)C(=O)N[C@@H](CCCNC(=N)N)C(N)=O [ArgTat, Ac-Tyr-Gly-Arg-Lys-Lys-Arg-Arg-Gln-Arg-Arg-Arg-NH2, reference compound] | 25 ± 3 nM | 25 ± 3 nM | 67 ± 19 nM | somewhat affected | 67 ± 19 nM | 67 ± 19 nM | minimal cytotoxicity
CC(=O)N[C@@H](Cc1ccc(O)cc1)C(=O)NCC(=O)N[C@@H](CCNC(=N)N)C(=O)N[C@@H](CCCCN)C(=O)N[C@@H](CCCCN)C(=O)N[C@@H](CCNC(=N)N)C(=O)N[C@@H](CCNC(=N)N)C(=O)N[C@@H](CCC(N)=O)C(=O)N[C@@H](CCNC(=N)N)C(=O)N[C@@H](CCNC(=N)N)C(=O)N[C@@H](CCNC(=N)N)C(N)=O [AgbTat, Ac-Tyr-Gly-Agb-Lys-Lys-Agb-Agb-Gln-Agb-Agb-Agb-NH2] | – | – | – | – | – | – | minimal cytotoxicity

Source: patent US8524659B2, “RNA virus-derived peptides with modified side chains” (National Taiwan University, priority 2011, dated 2013)
